# Measurements from publication PMC9482650, “Quantitative fragmentomics allow affinity mapping of interactomes” (Nature Communications, 2022).
# Like-named read-outs stand apart in the source and are kept apart here. Square brackets hold non-standard residues; d marks the D form. Ends that are not written are not given here. Peptide text beside a SMILES is read from it. pS = N[C@@H](COP(=O)(O)O)C(=O)O
# Assays:
# [1] = molecular target: SNX27 PDZ (Homo sapiens, UniProt Q96L92); assay: Holdup assay; format: binding
# [2] = molecular target: T1, SYNJ2BP PDZ (Homo sapiens, UniProt P57105); assay: Holdup assay; format: binding; settings: composite holdup affinity; 0.00=below quantification threshold; read-out: COMP pKd (converted)
# T1 sequence (P57105 13-100 limits assumed): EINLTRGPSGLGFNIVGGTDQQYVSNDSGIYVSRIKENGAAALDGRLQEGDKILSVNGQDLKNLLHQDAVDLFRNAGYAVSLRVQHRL
# [3] = molecular target: SCRIB_1 PDZ (Homo sapiens, UniProt Q14160); assay: Holdup assay; format: binding
# [4] = molecular target: DLG1_1 PDZ (Homo sapiens, UniProt Q12959); assay: Holdup assay; format: binding
# [5] = molecular target: DLG1_2 PDZ (Homo sapiens, UniProt Q12959); assay: Holdup assay; format: binding
# [6] = molecular target: T2, TX1BP3 PDZ (Homo sapiens, UniProt O14907); assay: Holdup assay; format: binding
# T2 sequence (O14907 15-112 limits assumed): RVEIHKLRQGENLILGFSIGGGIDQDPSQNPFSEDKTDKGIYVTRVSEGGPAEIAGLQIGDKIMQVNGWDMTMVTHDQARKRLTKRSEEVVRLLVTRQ
# [7] = test system: HEK293T cells; assay: Label-free MS proteome of stable cell lines expressing HPV16 E6 or E6ΔPBM; format: cell-based, human; settings: protein level
# In short: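 Confluent HEK293T lysates in HEPES-KOH pH 7.5, 1% Triton X-100 buffer, TCA-precipitated, reduced, alkylated, Lys-C then trypsin digested. nanoLC (90 min gradient) on LTQ-Orbitrap Elite, TOP20 CID data-dependent acquisition; SequestHT search of human SwissProt, 1% FDR. Label-free quantification by peptide XIC intensity, technical triplicates.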
# [8] = molecular target: T3, SCRIB2 PDZ (Homo sapiens, UniProt Q14160); assay: Holdup assay; format: binding
# T3 sequence (Q14160 862-950 limits assumed): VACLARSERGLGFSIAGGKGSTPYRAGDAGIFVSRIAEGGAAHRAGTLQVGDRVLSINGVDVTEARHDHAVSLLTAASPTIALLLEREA
# [9] = test system: HaCat cell extract preys; assay: PDZ-AP-MS, biotinylated MBP-PDZ baits; format: binding, human; settings: for Difference log2: enrichment of prey
# Procedure: (§1) For PDZ-AP-MS experiments, PDZ domains were cloned as His6-AviTag-MBP-PDZ constructs. For co-expression with BirA, E. coli BL21(DE3) cells were co-transformed with His6-AviTag-MBP, or His6-AviTag-MBP-PDZ-coding and PET21a-BirA (Addgene #20857) plasmids. Simultaneously to IPTG induction, 50 µM biotin was added to the media. After cell harvesting, the lysis buffer was also supplemented with 50 µM biotin. Otherwise, expression and double affinity purification was identical as previously described in details.
# (§2) For PBM-AP-MS experiments, 30 μl streptavidin resin was mixed with biotin or peptide at 50–60 μM concentration in 6–6.5 resin volume for 60 min to achieve resin saturation. For PDZ-AP-MS experiments, 30 μl streptavidin resin was mixed with biotinylated MBP or MBP-PDZ at 40-50 μM concentration in >1000× resin volume for 60 min to achieve resin saturation. After saturation, resins were washed a single time (ten resin volume, holdup buffer), and were depleted with biotin (1 mM biotin, 5–10 resin volume, 10 min). Finally, resins were washed two times. 0.5 ml 2 mg/ml cell lysate was added to the dry resin (1 mg total input) and were incubated at 4 °C for 2 h. Then, the beads were washed three times with 10 resin volume buffer containing: 50 mM TRIS pH 8.5, 150 mM NaCl, 1% TritonX-100, 10× complete EDTA-free protease inhibitor cocktail, 2 mM EDTA, 1 mM TCEP. Then, the beads were washed two times with ten resin volume buffer containing: 50 mM TRIS pH 8.5, 150 mM NaCl, 1 mM TCEP. Finally, captured protein was eluted from the resin in two steps and the eluted fractions were pooled. For each elution the beads were incubated for 30 min with three resin volume buffer containing: 20 mM TRIS pH8.5, 100 mM NaCl, 500 μM TCEP, 8 M Urea. Between each step, the beads were separated by mild centrifugation and the supernatant was removed by gentle pipetting.
# (§3) The samples were precipitated with TCA 20% overnight at 4 °C and centrifuged at 14,000 rpm for 10 min at 4 °C. The protein pellets were washed twice with 1 mL cold acetone and air dried. The protein extracts were solubilized in urea 8 M, reduced with 5 mM TCEP for 30 min, and alkylated with 10 mM iodoacetamide for 30 min in the dark. Double digestion was performed at 37 °C with 500 ng endoproteinase Lys-C for 4 h, followed by fourfold dilution and an overnight digestion with 500 ng trypsin. Peptide mixtures were then desalted on C18 spin-column and dried on Speed-Vacuum.
# (§4) Samples were analyzed using an Ultimate 3000 nano-RSLC (Thermo Scientific, San Jose California) coupled in line with a LTQ-Orbitrap ELITE mass spectrometer via a nano-electrospray ionization source (Thermo Scientific, San Jose California). Peptide mixtures were injected in 0.1% TFA on a C18 Acclaim PepMap100 trap-column (75 µm ID × 2 cm, 3 µm, 100 Å, Thermo Fisher Scientific) for 3 min at 5 µL/min with 2% ACN, 0.1% FA in H2O and then separated on a C18 Accucore nano-column (75 µm ID × 50 cm, 2.6 µm, 150 Å, Thermo Fisher Scientific) at 220 nl/min and 38 °C with a 90 min linear gradient from 5% to 30% buffer B (A: 0.1% FA in H2O/B: 99% ACN, 0.1% FA in H2O), regeneration at 5% B. The mass spectrometer was operated in positive ionization mode, in data-dependent mode with survey scans from m/z 350–1500 acquired in the Orbitrap at a resolution of 120,000 at m/z 400. The 20 most intense peaks from survey scans were selected for further fragmentation in the Linear Ion Trap with an isolation window of 2.0 Da and were fragmented by CID with normalized collision energy of 35%. (TOP20CID method) Unassigned and single charged states were excluded from fragmentation. The Ion Target Value for the survey scans (in the Orbitrap) and the MS2 mode (in the Linear Ion Trap) were set to 1E6 and 5E3 respectively and the maximum injection time was set to 100 ms for both scan modes. Dynamic exclusion was set to 20 s after one repeat count with mass width at ±10 ppm. […]
# [10] = test system: Jurkat cell extract preys; assay: PDZ-AP-MS, biotinylated MBP-PDZ baits; format: binding, human; settings: for Difference log2: enrichment of prey
# Procedure: as §1, §2, §3, §4
# [11] = PBM motif of the named protein vs SCRIB_1 PDZ, read-out: pKd values – domain-motif, SCRIB_1 (converted)
# [12] = PBM motif of the named protein vs DLG1_1 PDZ, read-out: pKd values – domain-motif, DLG1_1 (converted)
# [13] = PBM motif of the named protein vs DLG1_2 PDZ, read-out: pKd values – domain-motif, DLG1_2 (converted)
# [14] = PBM motif of the named protein vs TX1BP3 PDZ, read-out: pKd values – domain-motif, TX1BP3 (converted)
# [15] = holdup affinity of the PBM peptide of the named protein, sheet PBMcomplexome, lower sub-table, 3.5 appears to be the floor for no detectable binding, read-out: affinity of PBM to TX1BP3 (pKd) (converted)
# [16] = holdup affinity of the PBM peptide of the named protein, sheet PBMcomplexome, lower sub-table
# [17] = holdup affinity of the PBM peptide of the named protein, sheet PBMcomplexome, lower sub-table, 3.5 appears to be the floor for no detectable binding, read-out: affinity of PBM to SCRIB_1 (pKd) (converted)
# [18] = holdup affinity of the PBM peptide of the named protein, sheet PBMcomplexome, lower sub-table, 3.5 appears to be the floor for no detectable binding, read-out: affinity of PBM to DLG1_2 (pKd) (converted)
# [19] = holdup affinity of the PBM peptide of the named protein, sheet PBMcomplexome, lower sub-table, 3.5 appears to be the floor for no detectable binding, read-out: affinity of PBM to SCRIB_2 (pKd) (converted)
# [20] = holdup affinity of the PBM peptide of the named protein, sheet PBMcomplexome, lower sub-table, 3.5 appears to be the floor for no detectable binding, read-out: affinity of PBM to DLG1_1 (pKd) (converted)
# [21] = PBM motif of the named protein vs SCRIB_2 PDZ, read-out: pKd values – domain-motif, SCRIB_2 (converted)
# [22] = bait SCRIB_1 PDZ, fold change of prey
# [23] = bait SNX27 PDZ, fold change of prey
# Sequence of SCRIB_1 PDZ (Q14160 728-815 limits assumed): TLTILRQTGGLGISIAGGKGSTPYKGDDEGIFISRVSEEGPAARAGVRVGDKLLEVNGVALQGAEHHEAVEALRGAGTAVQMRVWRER
compound,measurement,setting,value
CC(C)C[C@H](NC(=O)[C@@H]1CCCN1C(=O)[C@@H]1CCCN1C(=O)[C@H](CCCCN)NC(=O)[C@H](CO)NC(=O)[C@H](CC(=O)O)NC(=O)CCCCCNC(=O)CCCC[C@@H]1SC[C@@H]2NC(=O)N[C@@H]21)C(=O)N1CCC[C@H]1C(=O)N1CCC[C@H]1C(=O)N[C@@H](CC(=O)O)C(=O)N[C@@H](CCC(=O)O)C(=O)N[C@@H](Cc1c[nH]c2ccccc12)C(=O)N[C@H](C(=O)O)C(C)C [MERS E],Kd,[1],27.5 µM
CC(C)C[C@H](NC(=O)[C@@H](NC(=O)[C@@H](NC(=O)[C@H](COP(=O)(O)O)NC(=O)[C@@H]1CCCN1C(=O)[C@H](CC(C)C)NC(=O)[C@H](CCCCN)NC(=O)[C@H](CCCNC(=N)N)NC(=O)[C@@H](NC(=O)[C@@H](N)CCCNC(=N)N)C(C)C)[C@@H](C)O)[C@@H](C)O)C(=O)O [p-3 phosphorylated RPS6KA1] (H-RVRKLP[pS]TTL-OH),Kd,[2],33.1 µM
DLDEEEDTHL [PODXL],Kd,[1],7.08 µM
same,Kd,[3]; [11],8.32 µM
same,Kd,[4]; [12],234 µM
DPRNTQTSQI [ABRAXAS2],Kd,[5]; [13],145 µM
same,Kd,[6]; [14],195 µM
same,Kd,[1],91.2 µM
same,Kd,[3]; [11],95.5 µM
same,Kd,[4]; [12],324 µM
DRIQSCLSDA [SBF1],Kd,[6]; [15],91.2 µM
EALLQMESVA [CAVIN3],Kd,[1]; [16],74.1 µM
same,Kd,[3]; [17],275 µM
ELSATVTTDC [TRIP6],Kd,[5]; [13],214 µM
same,Kd,[6]; [14],331 µM
same,Kd,[1],26.9 µM
same,Kd,[3]; [11],33.1 µM
ESYT2,Difference log2 E6/Ctrl,[7]; E6 cell line vs control,-0.8847
same,Ratio E6/Ctrl,[7]; E6 cell line vs control,0.5416
same,Difference log2 dPBM/E6,[7]; dPBM cell line vs E6 cell line,-0.2136
same,Ratio dPBM/E6,[7]; dPBM cell line vs E6 cell line,0.8624
same,Difference log2 dPBM/Ctrl,[7]; dPBM cell line vs control,-1.098
same,Ratio dPBM/Ctrl,[7]; dPBM cell line vs control,0.4671
GGPKEEESPV [SLC16A1],Kd,[5]; [13],275 µM
same,Kd,[1],5.37 µM
same,Kd,[3]; [11],6.61 µM
HSATSVHTSV [MTMR1],Kd,[5]; [18],12.6 µM
same,Kd,[6]; [15],158 µM
same,Kd,[8]; [19],112 µM
same,Kd,[1]; [16],110 µM
same,Kd,[3]; [17],162 µM
same,Kd,[4]; [20],55 µM
NLQEHSTTSV [RSBN1],Kd,[5]; [18],102 µM
same,Kd,[6]; [15],107 µM
same,Kd,[1]; [16],3.31 µM
same,Kd,[3]; [17],263 µM
same,Kd,[4]; [20],316 µM
PKMKLNETSF [SHKBP1],Kd,[1],2.88 µM
same,Kd,[3]; [11],49 µM
RVRKLPSTTL [RPS6KA1],Kd,[2],151 µM
SPLHSLETSL [ATP2B1],Kd,[5]; [13],21.4 µM
same,Kd,[6]; [14],35.5 µM
same,Kd,[8]; [21],53.7 µM
same,Kd,[1],3.31 µM
same,Kd,[3]; [11],4.37 µM
same,Kd,[4]; [12],75.9 µM
TJP1,Difference log2,[9]; bait DLG1_1 PDZ vs MBP,11.6713
same,Ratio DLG1_1/MBP,"[9]; bait DLG1_1 PDZ, fold change of prey",3261.52
same,Difference log2,[9]; bait SCRIB_1 PDZ vs MBP,5.351
same,Ratio SCRIB_1/MBP,[9]; [22],40.8237
same,Difference log2,[9]; bait SNX27 PDZ vs MBP,10.4278
same,Ratio SNX27/MBP,[9]; [23],1377.49
VIM,Difference log2,[10]; bait SCRIB_1 PDZ vs MBP,7.128
same,Ratio SCRIB_1/MBP,[10]; [22],139.918
same,Difference log2,[10]; bait SNX27 PDZ vs MBP,6.235
same,Ratio SNX27/MBP,[10]; [23],75.3373
same,Difference log2,[10]; bait TX1BP3 PDZ vs MBP,7.255
same,Ratio TX1BP3/MBP,"[10]; bait TX1BP3 PDZ, fold change of prey",152.718
VLRLQSETSV [VANGL1],Kd,[5]; [13],13.8 µM
same,Kd,[6]; [14],61.7 µM
same,Kd,[8]; [21],19.1 µM
same,Kd,[1],2 µM
same,Kd,[3]; [11],2.95 µM
same,Kd,[4]; [12],35.5 µM
YLEPVLSSEL [ATP2A2],Kd,[6]; [15],115 µM
same,Kd,[8]; [19],275 µM
same,Kd,[1]; [16],75.9 µM
same,Kd,[3]; [17],41.7 µM
